Measurements from patent US20150050373A1, “HERBAL COMPOSITION FOR THE TREATMENT OF METABOLIC DISORDERS” (PIRAMAL ENTERPRISES LIMITED, priority 2012, published 2015).

How the values were obtained:
[1] = target: T1, human DGAT-1 enzyme over expressed in Sf9 cell-line (Homo sapiens, UniProt O75907); experiment: hDGAT-1 assay (inhibition of [14C]triglyceride formation by microsomes); type: biochemical
T1 construct: hDGAT-1 ORF expression clone (RZPD0839C09146 in pDEST vector) was obtained from RZPD, Germany; made in house; host or cells: Sf9 insect cells (baculovirus, Bac-to-Bac); microsomal fraction
T1 sequence (O75907 1-488): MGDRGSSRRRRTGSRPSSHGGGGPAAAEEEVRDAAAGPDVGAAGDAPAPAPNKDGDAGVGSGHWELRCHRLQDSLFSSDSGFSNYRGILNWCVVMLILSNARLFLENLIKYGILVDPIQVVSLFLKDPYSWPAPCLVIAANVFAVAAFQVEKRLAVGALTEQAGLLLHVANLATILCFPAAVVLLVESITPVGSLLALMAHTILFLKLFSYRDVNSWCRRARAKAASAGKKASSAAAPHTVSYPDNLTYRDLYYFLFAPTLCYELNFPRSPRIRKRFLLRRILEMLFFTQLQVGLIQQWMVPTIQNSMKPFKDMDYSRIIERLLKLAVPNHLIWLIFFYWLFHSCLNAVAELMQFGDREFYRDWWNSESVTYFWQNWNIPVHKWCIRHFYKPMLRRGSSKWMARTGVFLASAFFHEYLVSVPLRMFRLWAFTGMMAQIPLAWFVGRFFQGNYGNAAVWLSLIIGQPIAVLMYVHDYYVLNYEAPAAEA
Procedure: The DGAT-1 assay was designed using human DGAT-1 enzyme over expressed in Sf9 cell-line as described in the reference, European Journal of Pharmacology, 650, 663-672, (2011), the disclosure of which is incorporated by reference for the teaching of the assay.
hDGAT-1 Enzyme preparation: Enzyme was diluted to a working concentration of 1 mg/mL in hDGAT-1 assay buffer, 2.5 μL of the working enzyme stock was used in hDGAT-1 assay (final concentration 25 μg/mL).
The test samples were prepared as follows. A stock solution of 20 mg/mL was prepared for each extract (Extract of Example 1 to Extract of Example 7) in 100% dimethyl sulfoxide (DMSO). The working stock was prepared in hDGAT-1 assay buffer. […]
Three different concentrations for dose response (i.e. 25 μg/mL, 50 μ/mL and 100 μg/mL) were prepared for Extract of Example 1 by serial dilution of stock solution.
60 μL of substrate mix (as described above) was added to a total assay volume of 100 μL. The reaction was started by adding 2.5 μg hDGAT-1 containing microsomal protein and was incubated at 37° C. for 10 min. The reaction was stopped by adding 300 μL of alkaline ethanol stop solution mix (AESSM). The reaction involves the incorporation of radioactive [^14C] oleoyl-CoA into the third hydroxyl group (OH) of 1,2-dioleoyl-sn-glycerol to form the radioactive triglyceride ([^14C] triglyceride) which was then extracted into the upper heptane phase. The radioactive triglyceride product thus formed was separated into the organic phase by adding 600 μL of n-heptane. 250 μL of the upper heptane was added into 4 mL of scintillation fluid and measured using a liquid scintillation counter (Packard; 1600CA) as disintegration per min (dpm) counts. The percentage inhibition was calculated with respect to the vehicle. […]

[2] = test system: high fat diet (HFD) induced obesity model; experiment: High fat diet (HFD)-induced body weight gain study in mice; type: in vivo; conditions: Mean ± S.E.M.
Procedure: A HFD induced body weight gain study in mice was conducted to evaluate the efficacy of the Extract of Example 1.
Male C57BL/6J mice (in-house; Central Animal Facility, Piramal Healthcare Limited, Goregaon, Mumbai, Maharashtra, India) were acclimatized with HFD (60% Kcal, D12492, Research Diets, USA) for two weeks.
A suspension of Extract of Example 1 was prepared in polyethyleneglycol 400 (30%) (PEG 400, Fisher Scientific, India) and 0.5% carboxy methylcellulose (70%) (CMC, Sigma, USA).
The Extract of Example 1 was administered at a dose of 500 mg/kg body-weight orally, once daily. Orlistat (Biocon, India) was used as the standard drug and was administered orally at a dose of 15 mg/kg body weight, twice daily. A separate group of ten mice was fed a low fat diet (LED, 10% kcal, D12450B, Research Diet, USA) as a normal control. Vehicle was administered to the HFD and LFD control groups at dose of 10 mL/kg body weight.
The treatments were continued for a period of sixty days. Body weight and feed intake were monitored daily. The % change in body weight (% increase in body weight from day 1) and the cumulative feed intake data was calculated. On day sixtyone, blood samples (˜200 μL/mice) were collected in heparinised (50 IU/mL) micro-centrifuge tubes under isoflurane anesthesia. Plasma was separated by centrifugation at 10000 rpm at 4° C. for estimation of various plasma biochemistry parameters. The biochemistry analysis was performed on BS-400 autoanalyzer (Mindray, China). Subsequently, the mice were sacrificed and following organs/tissues were dissected out and weighed viz., liver, heart, kidneys, epididymal fat and retroperitoneal fat. All the data was analyzed for statistical significance by one-way ANOVA followed by Dunnet's post-hoc test and values of P<0.05 were considered as significant. All analyses were carried out using GraphPad Prism version 4.00 for Windows (GraphPad Software, San Diego, Calif., USA).

[3] = HFD-fed mice after 60 days treatment, Extract 500 mg/kg once daily, Orlistat 15 mg/kg twice daily, oral
[4] = HFD-fed mice, Day 60, Extract 500 mg/kg orally once daily, Orlistat 15 mg/kg orally twice daily

| % inhibition of hDGAT-1 ([1]; Table 1, 20 nM) [%] | % inhibition of hDGAT-1 ([1]; Table 1, 0.1 μM) [%] | % inhibition of hDGAT-1 ([1]; Table 2, 20 nM) [%] | % inhibition of hDGAT-1 ([1]; Table 2, 0.1 μM) [%] | SMILES | Body Weight (g) (Day 0) ([2]; HFD-fed male C57BL/6J mice, baseline Day 0) | Epididymal Fat [2, 3] [g] | Retroperitoneal Fat [2, 3] [g] | % Change in body weight ([2]; HFD-fed mice, % increase in body weight from day 1, 60 days, Extract 500 mg/kg orally once daily, Orlistat 15 mg/kg orally twice daily) [%] | Body Weight (g) (Day 60) [2, 4] | Cumulative Feed intake (g/mice) (Day 60) [2, 4] | Total Fat ([2]; Total fat = Epididymal fat + Retroperitoneal fat, HFD-fed mice after 60 days treatment) [g] |
| --- | --- | --- | --- | --- | --- | --- | --- | --- | --- | --- | --- |
| 46.27 | 66.04 | 48.82 | 74.26 | CC1(C)Oc2ncncc2N=C1c1ccc([C@H]2CC[C@@H](CC(=O)O)CC2)cc1 [IN5530, 2-((1s,4s)-4-(4-(7,7-dimethyl-7H-pyrimido [4,5-b][1,4]oxazin-6-yl)phenyl)cyclohexyl)acetic acid] |  |  |  |  |  |  |  |
|  |  |  |  | CCCCCCCCCCC[C@@H](C[C@@H]1OC(=O)[C@H]1CCCCCC)OC(=O)[C@H](CC(C)C)NC=O [Orlistat] | 26.4 ± 0.4 | 1.07 ± 0.10 | 0.42 ± 0.05 | 16.74 ± 2.70 | 30.9 ± 0.9 | 119.7 ± 4.7 | 1.49 ± 0.15 |
